We go through 22 compounds from PMC10892120, “Design, Synthesis and Biological Assessment of N′-(2-Oxoindolin-3-ylidene)-6-methylimidazo[2,1-b]thiazole-5-carbohydrazides as Potential Anti-Proliferative Agents toward MCF-7 Breast Cancer” (Pharmaceuticals, 2024).

The test system of one data set is MCF-7 breast cell line. The data set can be described thus: MTT assay, anti-proliferative activity toward MCF-7. It is filed as cell-based. The settings on record: Homo sapiens, MCF7. How it is done:
. The developed compounds were evaluated in vitro using the MTT cell viability assay following the published techniques (Supplementary Data, page 42). […]
(§1) The 96 well tissue culture plate was seeded with 1 X 10^5 cells / ml (100 ul / well) and cultured at 37 degrees Celsius for 24 hours to form a full monolayer sheet. After forming a confluent sheet of cells, growth medium was decanted from 96 well micro titer plates, the cell monolayer was washed twice with wash media, and two-fold dilutions of the tested sample were prepared in RPMI medium with 2% serum (maintenance medium). In each well, 0.1 ml of each dilution was examined, with three wells serving as controls and receiving only maintenance media.
(§2) The plate was incubated at 37 degrees Celsius and then analyzed. Cells were examined for any physical evidence of toxicity, such as partial or total monolayer loss, rounding, shrinkage, or cell granulation. MTT solution (5mg/ml in PBS) was prepared (BIO BASIC CANADA INC), and 20ul MTT solution was added to each well. Shake the MTT into the medium for 5 minutes at 150rpm on a shaking table. Incubate for 4 hours (37°C, 5% CO2) to allow the MTT to be digested. Remove the media. (If required, dry plate on paper towels to remove residue. In 200ul DMSO, resuspend formazan (MTT metabolic product). Shake at 150rpm for 5 minutes to properly mix the formazan into the solvent. At 560nm, measure optical density and subtract background at 620nm. The optical density should be proportional to the number of cells. MCF-7 and MCF-10A cell lines were provided with 10% fetal bovine serum (FBS, Sigma-Aldrich, MO, USA). Data are presented as the mean of the IC50 values ± SD from three different experiments. […]

The target in the next data set is VEGFR-2 (Homo sapiens, UniProt P35968). The data set can be described thus: In vitro VEGFR-2 kinase inhibition assay. It is filed as biochemical. Conditions: mean ± SD of three experiments.
VEGFR-2, sequence (P35968 20-1356): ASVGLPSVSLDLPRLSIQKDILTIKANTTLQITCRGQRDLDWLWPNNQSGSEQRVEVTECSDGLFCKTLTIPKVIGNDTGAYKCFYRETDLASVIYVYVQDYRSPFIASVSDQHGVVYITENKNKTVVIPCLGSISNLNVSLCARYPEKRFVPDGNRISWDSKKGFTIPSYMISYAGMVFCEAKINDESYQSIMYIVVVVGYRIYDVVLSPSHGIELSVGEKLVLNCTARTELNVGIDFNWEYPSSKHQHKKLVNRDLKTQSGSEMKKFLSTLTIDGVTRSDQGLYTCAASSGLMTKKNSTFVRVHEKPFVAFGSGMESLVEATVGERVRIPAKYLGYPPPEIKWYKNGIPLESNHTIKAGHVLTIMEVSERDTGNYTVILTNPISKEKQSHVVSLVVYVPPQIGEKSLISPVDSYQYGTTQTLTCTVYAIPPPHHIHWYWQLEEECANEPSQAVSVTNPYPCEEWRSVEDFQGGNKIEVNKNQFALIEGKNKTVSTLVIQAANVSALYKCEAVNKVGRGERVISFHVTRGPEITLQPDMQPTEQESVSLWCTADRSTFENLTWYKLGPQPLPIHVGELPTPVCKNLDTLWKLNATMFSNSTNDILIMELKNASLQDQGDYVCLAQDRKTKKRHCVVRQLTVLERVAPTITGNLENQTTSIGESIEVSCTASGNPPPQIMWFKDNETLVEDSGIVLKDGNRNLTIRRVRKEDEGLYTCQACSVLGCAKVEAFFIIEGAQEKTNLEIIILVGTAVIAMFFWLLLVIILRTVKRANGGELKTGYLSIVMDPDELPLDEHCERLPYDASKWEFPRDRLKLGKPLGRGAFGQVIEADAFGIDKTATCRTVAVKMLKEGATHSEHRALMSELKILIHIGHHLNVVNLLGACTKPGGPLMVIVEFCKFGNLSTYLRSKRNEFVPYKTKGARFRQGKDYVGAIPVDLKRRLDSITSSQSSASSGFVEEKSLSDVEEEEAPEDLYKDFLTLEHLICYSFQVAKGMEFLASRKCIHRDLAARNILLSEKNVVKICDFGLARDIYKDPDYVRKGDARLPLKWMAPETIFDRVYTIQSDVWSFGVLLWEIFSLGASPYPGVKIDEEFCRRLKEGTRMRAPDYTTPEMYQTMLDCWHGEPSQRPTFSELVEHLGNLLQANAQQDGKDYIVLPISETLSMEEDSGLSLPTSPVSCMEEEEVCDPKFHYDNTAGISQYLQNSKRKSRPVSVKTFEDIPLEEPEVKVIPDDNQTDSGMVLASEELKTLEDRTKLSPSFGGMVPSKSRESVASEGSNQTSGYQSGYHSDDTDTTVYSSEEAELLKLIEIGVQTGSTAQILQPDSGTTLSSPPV
A further data set has as its system MCF-10A. The data set can be described thus: MTT assay, cytotoxicity toward MCF-10A. It is filed as cell-based. Conditions: Homo sapiens. As for the experimental part:
The developed compounds were evaluated in vitro using the MTT cell viability assay following the published techniques (Supplementary Data, page 42). […]
as §1, §2

The next data set relates to MCF-7 cell line. The settings on record: cited from earlier work.
Where [1] appears, read: MCF-7 cell line, MTT assay, mean ± SD of three experiments, read-out: IC50.
Setting [2] is: MTT assay, mean ± SD of three experiments, read-out: IC50.

In general, IC50 refers to the concentration needed to halve the response being measured. As a reminder, the melting point is the temperature, or range, at which the solid turns liquid.

Where two headings read alike, the source gives them in different places.

In turn, `Cc1nc2sccn2c1C(=O)NN=C1C(=O)Nc2ccc(Cl)cc21` [Compound 6c, N′-(5-Chloro-2-oxoindolin-3-ylidene)-6-methylimidazo[2,1-b]thiazole-5-carbohydrazide] displayed a melting point of 292 to 293 °C. Moreover, in the data set with MCF-7 breast cell line (setting [1]), the IC50 is 43.1 ± 3.69 µM.

`Cc1nc2sccn2c1NC(=O)Nc1ccc(Cl)cc1` [Compound 8e, 1-(4-Chlorophenyl)-3-(6-methylimidazo[2,1-b]thiazol-5-yl)urea] came in with a melting point of 285 to 286 °C. Also, in the data set with MCF-7 breast cell line (setting [1]), the IC50 was determined as 35.7 ± 3.32 µM.

In the case of `Cc1nc2sccn2c1NC(=O)Nc1ccc(S(N)(=O)=O)cc1` [Compound 8g, 4-(3-(6-Methylimidazo[2,1-b]thiazol-5-yl)ureido)benzenesulfonamide], the melting point is 283 to 284 °C. Also, the half-maximal inhibitory concentration (IC50) in the data set with MCF-7 breast cell line (setting [1]) came to 41.6 ± 1.59 µM.

`CCCN1C(=O)C(=NNC(=O)c2c(C)nc3sccn23)c2ccccc21` [Compound 6e, 6-Methyl-N′-(2-oxo-1-propylindolin-3-ylidene)imidazo[2,1-b]thiazole-5-carbohydrazide]: the melting point was 256 to 257 °C. Further, the half-inhibitory concentration (IC50) in the data set on MCF-7 breast cell line came out at 61.4 ± 3.15 µM.

Compound `CCCCN1C(=O)C(=NNC(=O)c2c(C)nc3sccn23)c2cc(F)ccc21` [Compound 6j, N′-(1-Butyl-5-fluoro-2-oxoindolin-3-ylidene)-6-methylimidazo[2,1-b]thiazole-5-carbohydrazide] gave a melting point of 237 to 238 °C. Further, 11.7 ± 0.52 µM corresponded to half-maximal inhibition in the data set on MCF-7 breast cell line (IC50). The same compound yielded an IC50 on VEGFR-2 of 1.51 ± 0.06 µM. Further, the half-maximal inhibitory concentration (IC50) in the data set on MCF-10A stood at 47.7 ± 0.53 µM.

For `O=C1Nc2ccccc2/C1=N/N=C/c1ccc[nH]1` [VI], in the data set with MCF-7 cell line (MCF-7 cancerous cell line), the IC50 is 6.25 µM.

Compound `COc1ccc(NC(=O)Nc2c(C)nc3sccn23)cc1` [Compound 8c, 1-(4-Methoxyphenyl)-3-(6-methylimidazo[2,1-b]thiazol-5-yl)urea] came in with a melting point of 284 to 285 °C. Also, in the data set with MCF-7 breast cell line (setting [1]), the IC50 is 106 ± 5.32 µM.

For `COc1cc(C(=O)/C=C/c2c(C(F)(F)F)nc3sccn23)cc(OC)c1OC` [IX], the half-maximal inhibitory concentration (IC50) in the data set with MCF-7 cell line (MCF-7 cell line) is 0.794 µM.

For `Cc1nc2sccn2c1NC(=O)Nc1ccc(F)cc1` [Compound 8d, 1-(4-Fluorophenyl)-3-(6-methylimidazo[2,1-b]thiazol-5-yl)urea], the melting point was 281 to 282 °C. Further, the IC50 in the data set with MCF-7 breast cell line (setting [1]) is 72.3 ± 4.71 µM.

Compound `Cc1nc2sccn2c1NC(=O)Nc1ccc(Br)cc1` [Compound 8f, 1-(4-Bromophenyl)-3-(6-methylimidazo[2,1-b]thiazol-5-yl)urea] gave a melting point of 288 to 289 °C. Besides, the half-maximal inhibitory concentration (IC50) in the data set on MCF-7 breast cell line (setting [1]) amounted to 31.1 ± 2.47 µM.

`CCCN1C(=O)C(=NNC(=O)c2c(C)nc3sccn23)c2cc(Br)ccc21` [Compound 6h, N′-(5-Bromo-2-oxo-1-propylindolin-3-ylidene)-6-methylimidazo[2,1-b]thiazole-5-carbohydrazide]: the melting point was in the range of 261 to 262 °C. Also, the half-maximal inhibitory concentration (IC50) in the data set with MCF-7 breast cell line amounted to 74.3 ± 2.19 µM.

On to `Cc1ccc(NC(=O)Nc2c(C)nc3sccn23)cc1` [Compound 8b, 1-(6-Methylimidazo[2,1-b]thiazol-5-yl)-3-(p-tolyl)urea], for which the melting point is 282 to 283 °C. Further, the IC50 in the data set on MCF-7 breast cell line (setting [1]) was 115 ± 4.99 µM.

`CCCCN1C(=O)/C(=N\NC(=O)c2c(C)nc3sccn23)c2cc(Br)ccc21` [Compound 6l, N′-(5-Romo-1-butyl-2-oxoindolin-3-ylidene)-6-methylimidazo[2,1-b]thiazole-5-carbohydrazide] gave a melting point of 237 to 238 °C. The compound also registered an IC50 with MCF-7 breast cell line of 52.6 ± 2.36 µM.

Compound `CCCN1C(=O)C(=NNC(=O)c2c(C)nc3sccn23)c2cc(F)ccc21` [Compound 6f, N′-(5-Fluoro-2-oxo-1-propylindolin-3-ylidene)-6-methylimidazo[2,1-b]thiazole-5-carbohydrazide] came in with a melting point of 243 to 244 °C. It took 82.5 ± 2.75 µM to reach half-maximal inhibition with MCF-7 breast cell line (IC50).

Compound `CCCN1C(=O)C(=NNC(=O)c2c(C)nc3sccn23)c2cc(Cl)ccc21` [Compound 6g, N′-(5-Chloro-2-oxo-1-propylindolin-3-ylidene)-6-methylimidazo[2,1-b]thiazole-5-carbohydrazide] had a melting point of 254 to 255 °C. Moreover, in the data set with MCF-7 breast cell line, 52.5 ± 1.26 µM corresponded to half-maximal inhibition (IC50).

`Cc1nc2sccn2c1C(=O)NN=C1C(=O)Nc2ccc(Br)cc21` [Compound 6d, N′-(5-Bromo-2-oxoindolin-3-ylidene)-6-methylimidazo[2,1-b]thiazole-5-carbohydrazide] registered a melting point of 296 to 297 °C. The IC50 in the data set with MCF-7 breast cell line (setting [1]) stood at 22.8 ± 1.38 µM.

Consider `COc1ccc(-c2nc(N/N=C3/C(=O)Nc4ccc(Cl)cc43)c3ccccc3n2)cc1OC` [VIII], for which, in the data set on MCF-7 cell line (MCF-7 cancerous cell line), the half-maximal inhibitory concentration (IC50) was 2.1 µM.

On to `Cc1nc2sccn2c1C(=O)NN=C1C(=O)Nc2ccccc21` [Compound 6a, 6-Methyl-N′-(2-oxoindolin-3-ylidene)imidazo[2,1-b]thiazole-5-carbohydrazide], for which the melting point is > 300 °C. Also, the IC50 with MCF-7 breast cell line (setting [1]) turned out to be 24 ± 0.67 µM.

As for `Cc1nc2sccn2c1NC(=O)Nc1ccccc1` [Compound 8a, 1-(6-Methylimidazo[2,1-b]thiazol-5-yl)-3-phenylurea], the melting point lay in the range of 287 to 288 °C. In the data set on MCF-7 breast cell line (setting [1]), the 50% inhibitory concentration (IC50) worked out at 110 ± 4.62 µM.

Regarding `CNC(=O)c1cc(Oc2ccc(NC(=O)Nc3ccc(Cl)c(C(F)(F)F)c3)cc2)ccn1` [Sorafenib (I), Sorafenib, reference compound], the half-maximal inhibitory concentration (IC50) in the data set on MCF-7 breast cell line (setting [1]) stood at 7.55 ± 0.4 µM; in the data set on MCF-10A (setting [2]) it was 22.4 ± 1.29 µM.

`Cc1nc2sccn2c1C(=O)NN=C1C(=O)Nc2ccc(F)cc21` [Compound 6b, N′-(5-Fluoro-2-oxoindolin-3-ylidene)-6-methylimidazo[2,1-b]thiazole-5-carbohydrazide]: the melting point was > 300 °C. For the same compound, the concentration for half-maximal inhibition (IC50) in the data set with MCF-7 breast cell line (setting [1]) was determined as 11.5 ± 0.52 µM. At VEGFR-2, this compound registered an IC50 of 3.85 ± 0.15 µM. The IC50 with MCF-10A (setting [2]) was found to be 125 ± 2.7 µM.

In turn, `CCCCN1C(=O)C(=NNC(=O)c2c(C)nc3sccn23)c2cc(Cl)ccc21` [Compound 6k, N′-(1-Butyl-5-chloro-2-oxoindolin-3-ylidene)-6-methylimidazo[2,1-b]thiazole-5-carbohydrazide] gave a melting point of 224 to 225 °C. 42.7 ± 2.01 µM corresponded to half-maximal inhibition in the data set with MCF-7 breast cell line (IC50).
